# According to ChEMBL document CHEMBL3098080, “Replacement of amide with bioisosteres led to a new series of potent adenosine A2A receptor antagonists” (Bioorg Med Chem Lett, 2014):
# Columns and labels:
# [1] = Chemical stability in 0.2N HCl in methanol after 24 hrs; assay type: physicochemical
# [2] = target: T1, Adenosine receptor A2a (Homo sapiens, UniProt P29274); experiment: Inhibition of adenosine A2A receptor (unknown origin) at 100 umol/L relative to control
# [3] = target: T1, Adenosine receptor A2a; experiment: Displacement of [3H]-ZM241385 from human adenosine A2A receptor expressed in HEK293 cells; assay type: cell-based
# T1 sequence (P29274 whole entry): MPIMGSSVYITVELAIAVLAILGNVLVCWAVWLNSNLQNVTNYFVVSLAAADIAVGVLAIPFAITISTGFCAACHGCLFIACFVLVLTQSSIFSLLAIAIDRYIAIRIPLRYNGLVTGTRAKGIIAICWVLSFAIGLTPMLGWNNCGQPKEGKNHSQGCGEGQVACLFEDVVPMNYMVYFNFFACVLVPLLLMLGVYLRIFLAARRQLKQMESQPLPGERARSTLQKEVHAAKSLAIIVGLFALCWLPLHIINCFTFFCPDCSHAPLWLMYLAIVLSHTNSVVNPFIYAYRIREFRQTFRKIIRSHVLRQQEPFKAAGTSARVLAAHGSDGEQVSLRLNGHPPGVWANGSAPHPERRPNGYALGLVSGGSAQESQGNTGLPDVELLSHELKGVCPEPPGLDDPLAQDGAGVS
SMILES,Stability [1],inhibition [2],Ki [3]
Cc1cc(C)n(-c2nc(Nc3ncccn3)cc(N3CCc4ccccc4C3)n2)n1,–,-5%,–
Cc1cc(C)n(-c2nc(Nc3cnccn3)cc(-n3cccn3)n2)n1,–,117%,43 nM
COCCOc1ccc(N2CCN(CCn3ncc4c3nc(N)n3nc(-c5ccco5)nc43)CC2)cc1 [PRELADENANT],–,120%,1 nM
COC[C@H]1CCCN1c1cc(Nc2nccs2)nc(-n2nc(C)cc2C)n1,Stable,123%,9.5 nM
Cc1cc(C)n(-c2nc(Nc3nccs3)cc(-n3cccn3)n2)n1,–,58%,–
Cc1cc(C)n(-c2nc(Nc3ccccn3)cc(-n3cccn3)n2)n1,–,117%,9.2 nM
Cc1cc(C)n(-c2nc(NCC(F)(F)F)cc(N3CCc4ccccc4C3)n2)n1,–,64%,–
Cc1cc(C)n(-c2nc(Nc3ncccn3)cc(-n3cccn3)n2)n1,–,23%,–

# Second part, the molecule after the results:
Stability [1],inhibition [2],Ki [3],SMILES
Stable,115%,24 nM,COC[C@H]1CCCN1c1cc(NCC(F)(F)F)nc(-n2nc(C)cc2C)n1
–,95%,65 nM,Cc1cc(C)n(-c2nc(Nc3ccccn3)cc(N3CCc4ccccc4C3)n2)n1
–,117%,66 nM,Cc1cc(C)n(-c2nc(Nc3nccs3)cc(N3CCc4ccccc4C3)n2)n1
–,121%,1.1 nM,Cc1cc(C)n(-c2nc(Nc3cnccn3)cc(N3CCc4ccccc4C3)n2)n1
Stable,124%,69 nM,COC[C@H]1CCCN1c1cc(Nc2cnccn2)nc(-n2nc(C)cc2C)n1
–,71%,–,COC[C@H]1CCCN1c1cc(Nc2ncccn2)nc(-n2nc(C)cc2C)n1
–,123%,15 nM,COC[C@H]1CCCN1c1cc(NC(C)=O)nc(-n2nc(C)cc2C)n1
–,117%,52 nM,Cc1cc(C)n(-c2nc(NCC(F)(F)F)cc(-n3cccn3)n2)n1
Stable,124%,45 nM,COC[C@H]1CCCN1c1cc(Nc2ccccn2)nc(-n2nc(C)cc2C)n1
